This note sets out measurements from US10722501B2 (BAYER AKTIENGESELLSCHAFT, priority 2016, dated 2020).

This test addresses T1, recombinant full-length human prolyl endopeptidase (PREP) (Homo sapiens, UniProt P48147).
T1 construct: To recombinant full-length human prolyl endopeptidase (PREP, R&D-Systems, 4308-SE); purchased R&D-Systems 4308-SE
T1 sequence (P48147 1-710): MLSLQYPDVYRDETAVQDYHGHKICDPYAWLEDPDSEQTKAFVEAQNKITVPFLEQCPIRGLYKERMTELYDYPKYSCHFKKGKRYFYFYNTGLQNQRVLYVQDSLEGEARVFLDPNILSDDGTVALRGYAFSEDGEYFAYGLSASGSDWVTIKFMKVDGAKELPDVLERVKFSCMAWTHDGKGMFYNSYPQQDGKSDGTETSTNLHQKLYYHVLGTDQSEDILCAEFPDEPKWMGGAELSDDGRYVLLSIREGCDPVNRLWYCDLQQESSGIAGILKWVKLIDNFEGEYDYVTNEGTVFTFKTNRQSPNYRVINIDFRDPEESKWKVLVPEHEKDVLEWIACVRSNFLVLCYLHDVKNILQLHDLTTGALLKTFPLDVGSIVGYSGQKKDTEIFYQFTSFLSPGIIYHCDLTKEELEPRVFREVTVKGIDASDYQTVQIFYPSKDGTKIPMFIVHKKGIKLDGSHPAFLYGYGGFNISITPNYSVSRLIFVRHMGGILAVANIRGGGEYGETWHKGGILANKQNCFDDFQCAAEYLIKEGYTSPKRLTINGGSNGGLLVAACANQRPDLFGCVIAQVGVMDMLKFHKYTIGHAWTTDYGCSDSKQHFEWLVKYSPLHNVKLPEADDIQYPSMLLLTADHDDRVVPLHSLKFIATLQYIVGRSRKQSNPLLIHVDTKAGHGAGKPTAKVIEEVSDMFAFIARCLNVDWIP
The test can be described thus: Biochemical human prolyl endopeptidase (PREP) assay with fluorescently labelled substrate. The conditions noted are these: substrate Z-Gly-Pro-AMC 50 μM, 32° C., 60 min; some as mean values from multiple independent determinations. The gist of the method: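 Initial rates of fluorescence increase from 50 μM Z-Gly-Pro-AMC cleavage (ex 360/em 465 nm, 60 min, 32° C) give percent PREP activity versus no-compound control, and IC50 is interpolated. Enzyme used at 0.4 nM (final, example) in Tris pH 7.5 with EDTA, GSH, BSA and Brij-35; compounds span 1 nM to 30 μM.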
The IC50 is the point on the concentration scale where inhibition reaches its midpoint. Regarding `O=C([C@@H]1CCCc2nn(Cc3ccc(C(F)F)nc3)c(=O)n21)N1CC[C@H](F)C1` [Example 206, (5S)-2-{[6-(Difluoromethyl)pyridin-3-yl]methyl}-5-{[(3S)-3-fluoropyrrolidin-1-yl]carbonyl}-5,6,7,8-tetrahydro[1,2,4]triazolo[4,3-a]pyridin-3(2H)-one], the IC50 turned out to be 1.2 nM.

As for `O=C([C@@H]1CCCc2nn(Cc3ccc(C(F)F)nc3)c(=O)n21)N1C[C@@H](F)[C@@H](F)C1` [Example 207, (5S)-2-{[6-(Difluoromethyl)pyridin-3-yl]methyl}-5-{[(3R,4S)-3,4-difluoropyrrolidin-1-yl]carbonyl}-5,6,7,8-tetrahydro[1,2,4]triazolo[4,3-a]pyridin-3(2H)-one], the IC50 came to 4.2 nM.

As for `O=C([C@@H]1CCCc2nn(Cc3ccc(C(F)F)nc3)c(=O)n21)N1CCC(F)(F)C1` [Example 208, (5S)-2-{[6-(Difluoromethyl)pyridin-3-yl]methyl}-5-[(3,3-difluoropyrrolidin-1-yl)carbonyl]-5,6,7,8-tetrahydro[1,2,4]triazolo[4,3-a]pyridin-3(2H)-one], the 50% inhibitory concentration (IC50) turned out to be 15 nM.

Regarding `O=C([C@@H]1CCCc2nn(Cc3ccc(C(F)F)nc3)c(=O)n21)N1CC(F)C1` [Example 209, (5S)-2-{[6-(Difluoromethyl)pyridin-3-yl]methyl}-5-[(3-fluoroazetidin-1-yl)carbonyl]-5,6,7,8-tetrahydro[1,2,4]triazolo[4,3-a]pyridin-3(2H)-one], the IC50 worked out at 5.5 nM.

Regarding `O=C([C@@H]1CCCc2nn(Cc3ccc(Br)cc3)c(=O)n21)N1C[C@@H](F)[C@@H](F)C1` [Example 210, (5S)-2-(4-Bromobenzyl)-5-{[(3R,4S)-3,4-difluoropyrrolidin-1-yl]carbonyl}-5,6,7,8-tetrahydro[1,2,4]triazolo[4,3-a]pyridin-3(2H)-one], the IC50 came to 0.27 nM.

As for `O=C([C@@H]1CCCc2nn(Cc3cccc(Br)c3)c(=O)n21)N1C[C@@H](F)[C@@H](F)C1` [Example 211, (5S)-2-(3-Bromobenzyl)-5-{[(3R,4S)-3,4-difluoropyrrolidin-1-yl]carbonyl}-5,6,7,8-tetrahydro[1,2,4]triazolo[4,3-a]pyridin-3(2H)-one], the 50% inhibitory concentration (IC50) came out at 0.15 nM.

For `O=C([C@@H]1CCCc2nn(Cc3ccc(Br)cc3)c(=O)n21)N1CC[C@H](F)C1` [Example 212, (5S)-2-(4-Bromobenzyl)-5-{[(3S)-3-fluoropyrrolidin-1-yl]carbonyl}-5,6,7,8-tetrahydro[1,2,4]triazolo[4,3-a]pyridin-3(2H)-one], the half-maximal inhibitory concentration (IC50) came out at 0.041 nM.

As to `O=C([C@@H]1CCCc2nn(Cc3cccc(Br)c3)c(=O)n21)N1CC[C@H](F)C1` [Example 213, (5S)-2-(3-Bromobenzyl)-5-{[(3S)-3-fluoropyrrolidin-1-yl]carbonyl}-5,6,7,8-tetrahydro[1,2,4]triazolo[4,3-a]pyridin-3(2H)-one], the IC50 came out at 0.77 nM.

As to `O=C([C@@H]1CCCc2nn(Cc3ccc(Br)cc3F)c(=O)n21)N1CC[C@H](F)C1` [Example 214, (5S)-2-(4-Bromo-2-fluorobenzyl)-5-{[(3S)-3-fluoropyrrolidin-1-yl]carbonyl}-5,6,7,8-tetrahydro[1,2,4]triazolo[4,3-a]pyridin-3(2H)-one], the IC50 worked out at 0.2 nM.

Take `O=C([C@@H]1CCCc2nn(Cc3ccc(Br)cc3F)c(=O)n21)N1C[C@@H](F)[C@@H](F)C1` [Example 215, (5S)-2-(4-Bromo-2-fluorobenzyl)-5-{[(3R,4S)-3,4-difluoropyrrolidin-1-yl]carbonyl}-5,6,7,8-tetrahydro[1,2,4]triazolo[4,3-a]pyridin-3(2H)-one]: the IC50 is 0.53 nM.

Regarding `O=C([C@@H]1CC=Cc2nn(Cc3ccc(C(F)(F)F)nc3)c(=O)n21)N1CC[C@H](F)C1` [Example 276, (5S)-5-{[(3S)-3-Fluoropyrrolidin-1-yl]carbonyl}-2-{[6-(trifluoromethyl)pyridin-3-yl]methyl}-5,6-dihydro[1,2,4]triazolo[4,3-a]pyridin-3(2H)-one], the IC50 came out at 3.6 nM.

Turning to `O=C([C@@H]1CCC(F)(F)c2nn(Cc3ccc(C(F)(F)F)nc3)c(=O)n21)N1CC[C@H](F)C1` [Example 278, (5S)-8,8-Difluoro-5-{[(3S)-3-fluoropyrrolidin-1-yl]carbonyl}-2-{[6-(trifluoromethyl)pyridin-3-yl]methyl}-5,6,7,8-tetrahydro[1,2,4]triazolo[4,3-a]pyridin-3(2H)-one], the IC50 came to 3.3 nM.

Take `O=C([C@@H]1CCCc2nn(CCc3ncc(C(F)(F)F)cc3Cl)c(=O)n21)N1CC[C@H](F)C1` [Example 342, (5S)-2-{2-[3-Chloro-5-(trifluoromethyl)pyridin-2-yl]ethyl}-5-{[(3S)-3-fluoropyrrolidin-1-yl]carbonyl}-5,6,7,8-tetrahydro[1,2,4]triazolo[4,3-a]pyridin-3(2H)-one]: the IC50 amounted to 1.75 nM.

As to `O=C([C@@H]1CCCc2nn(CCc3ncc(C(F)(F)F)cc3Cl)c(=O)n21)N1CCC(F)(F)C1` [Example 343, (5S)-2-{2-[3-Chloro-5-(trifluoromethyl)pyridin-2-yl]ethyl}-5-[(3,3-difluoropyrrolidin-1-yl)carbonyl]-5,6,7,8-tetrahydro[1,2,4]triazolo[4,3-a]pyridin-3(2H)-one], the 50% inhibitory concentration (IC50) worked out at 7.9 nM.

As to `O=C([C@@H]1CCCc2nn(CCc3ccc(F)cc3)c(=O)n21)N1C[C@@H](F)[C@@H](F)C1` [Example 344, (5S)-5-{[(3R,4S)-3,4-Difluoropyrrolidin-1-yl]carbonyl}-2-[2-(4-fluorophenyl)ethyl]-5,6,7,8-tetrahydro[1,2,4]triazolo[4,3-a]pyridin-3(2H)-one], the IC50 came out at 0.53 nM.

`O=C([C@@H]1CCCc2nn(CCc3ccc(F)cc3)c(=O)n21)N1CC(F)(F)C1` [Example 345, (5S)-5-[(3,3-Difluoroazetidin-1-yl)carbonyl]-2-[2-(4-fluorophenyl)ethyl]-5,6,7,8-tetrahydro[1,2,4]triazolo[4,3-a]pyridin-3(2H)-one]: the IC50 was determined as 6.4 nM.

For `COc1ccc(CCn2nc3n(c2=O)[C@H](C(=O)N2CCC(F)(F)C2)CCC3)cc1` [Example 346, (5S)-5-[(3,3-Difluoropyrrolidin-1-yl)carbonyl]-2-[2-(4-methoxyphenyl)ethyl]-5,6,7,8-tetrahydro[1,2,4]triazolo[4,3-a]pyridin-3(2H)-one], the IC50 came to 4.2 nM.

Take `COc1ccc(CCn2nc3n(c2=O)[C@H](C(=O)N2CC(F)C2)CCC3)cc1` [Example 347, (5S)-5-[(3-Fluoroazetidin-1-yl)carbonyl]-2-[2-(4-methoxyphenyl)ethyl]-5,6,7,8-tetrahydro[1,2,4]triazolo[4,3-a]pyridin-3(2H)-one]: the IC50 was 4.8 nM.

As for `O=C([C@@H]1CCCc2nn(CC3(c4cccc(Cl)n4)CC3)c(=O)n21)N1CC(F)C1` [Example 348, (5S)-2-{[1-(6-Chloropyridin-2-yl)cyclopropyl]methyl}-5-[(3-fluoroazetidin-1-yl)carbonyl]-5,6,7,8-tetrahydro[1,2,4]triazolo[4,3-a]pyridin-3(2H)-one], the IC50 amounted to 3.8 nM.

In the case of `O=C([C@@H]1CCCc2nn(CC3(c4cccc(Cl)n4)CC3)c(=O)n21)N1CCC(F)(F)C1` [Example 349, (5S)-2-{[1-(6-Chloropyridin-2-yl)cyclopropyl]methyl}-5-[(3,3-difluoropyrrolidin-1-yl)carbonyl]-5,6,7,8-tetrahydro[1,2,4]triazolo[4,3-a]pyridin-3(2H)-one], the IC50 came out at 1.45 nM.
